Source: article PMC10379611 (International Journal of Molecular Sciences, 2023)
Entries after “also recorded” stand apart in the source; their conditions may differ.

Assays:
OATP2B1 = biological target: T1, OATP2B1 (Homo sapiens, UniProt O94956); test: OATP2B1 uptake assay (pyranine) in overexpressing A431 cells; type: cell-based; conditions: for IC50: pyranine substrate, A431 cells, pH 5.5, read-out: estimated IC50, OATP2B1
T1 construct: expressed in transfected cells; host or cells: A431
T1 sequence (O94956 1-709): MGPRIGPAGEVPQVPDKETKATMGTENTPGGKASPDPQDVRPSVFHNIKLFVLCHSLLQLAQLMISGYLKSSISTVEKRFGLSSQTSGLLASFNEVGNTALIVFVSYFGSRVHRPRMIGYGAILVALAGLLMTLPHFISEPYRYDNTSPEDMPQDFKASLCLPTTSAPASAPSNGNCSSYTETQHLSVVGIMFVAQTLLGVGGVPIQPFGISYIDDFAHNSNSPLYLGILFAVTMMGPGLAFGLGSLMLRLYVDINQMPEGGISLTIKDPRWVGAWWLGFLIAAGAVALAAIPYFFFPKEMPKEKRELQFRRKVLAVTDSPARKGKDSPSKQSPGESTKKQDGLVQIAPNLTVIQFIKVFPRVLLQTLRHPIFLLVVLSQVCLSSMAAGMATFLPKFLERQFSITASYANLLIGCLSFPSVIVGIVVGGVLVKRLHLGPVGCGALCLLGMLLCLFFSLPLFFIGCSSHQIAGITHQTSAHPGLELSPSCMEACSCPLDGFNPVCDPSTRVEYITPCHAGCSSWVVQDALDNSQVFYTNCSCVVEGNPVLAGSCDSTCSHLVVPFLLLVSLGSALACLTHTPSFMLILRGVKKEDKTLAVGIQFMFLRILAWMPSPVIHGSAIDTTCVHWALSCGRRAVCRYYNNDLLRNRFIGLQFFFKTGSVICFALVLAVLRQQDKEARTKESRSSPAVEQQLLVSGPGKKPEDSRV
Method: To study the function of OATPs, we used A431 cells overexpressing OATP1A2, OATP1B1, OATP1B3, or OATP2B1 and mock-transfected A431 cells, generated as previously described, as controls. […] Briefly, OATP-overexpressing A431 cells and mock-transfected A431 cells were seeded on 96-well plates (8 × 10^4 cells/well).

ABCG2 = biological target: T2, ABCG2 (Homo sapiens, UniProt Q9UNQ0); test: ABCG2 vesicular transport (lucifer yellow), HEK293 inverted membrane vesicles; conditions: up to 200 μM
T2 sequence (Q9UNQ0 1-655): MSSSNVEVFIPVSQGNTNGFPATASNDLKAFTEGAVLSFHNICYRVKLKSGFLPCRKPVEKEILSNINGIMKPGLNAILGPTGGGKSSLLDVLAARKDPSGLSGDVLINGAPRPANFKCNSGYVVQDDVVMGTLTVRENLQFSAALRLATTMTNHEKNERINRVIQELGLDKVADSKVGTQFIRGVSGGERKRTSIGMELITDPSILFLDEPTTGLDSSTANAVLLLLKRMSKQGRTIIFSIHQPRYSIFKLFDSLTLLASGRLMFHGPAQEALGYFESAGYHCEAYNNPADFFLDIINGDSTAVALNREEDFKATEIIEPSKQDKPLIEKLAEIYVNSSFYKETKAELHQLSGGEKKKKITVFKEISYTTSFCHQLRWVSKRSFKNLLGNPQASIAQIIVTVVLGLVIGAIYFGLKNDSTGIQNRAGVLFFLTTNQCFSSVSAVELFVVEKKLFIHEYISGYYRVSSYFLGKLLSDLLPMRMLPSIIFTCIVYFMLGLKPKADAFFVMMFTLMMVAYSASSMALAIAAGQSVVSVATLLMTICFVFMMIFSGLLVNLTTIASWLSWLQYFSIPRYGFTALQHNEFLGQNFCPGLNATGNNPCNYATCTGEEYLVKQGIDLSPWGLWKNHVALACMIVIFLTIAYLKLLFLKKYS
Method: ABCB1, ABCG2, and ABCC4 HEK293 membrane vesicles were prepared by Solvo Biotechnology, Budapest. The total protein content of membrane vesicle preparations was determined using the Lowry quantitation method and 30 µg (ABCG2) or 50 µg (ABCB1 and ABCC4) total protein/sample was used for the measurements. For ABCG2 vesicular transport, the fluorescent probe Lucifer yellow (LY) was present in the mixture at 5 μM final concentration. […] Uptake of the probe substrates into the inverted membrane vesicles was measured at 37 °C (ABCG2, ABCB1) or at 32 °C (ABCC4) for 10 min (ABCG2), 5 min (ABCB1), or 1.5 min (ABCC4) in the presence or absence of 4 mM Mg-ATP, in 75 μL final volume of the media (0.04 M MOPS-TRIS pH 7.2, 56 mM KCl, 6 mM MgCl2). The known reference inhibitors of the transporters (1 µM Ko143 for ABCG2, 50 µM Verapamil for ABCB1, and 150 µM MK571 for ABCC4) served as controls. Each test compound was dissolved in DMSO and a 0.75 µL volume was added to the samples. A DMSO solvent control was used in each experiment. The transport was stopped by the addition of ice-cold wash buffer to the samples, then rapidly filtered (MSFBN6B, Millipore, Burlington, MA, USA). Filters were washed with ice-cold wash buffer (0.04 M MOPS-TRIS pH 7.2, 70 mM KCl). For LY, vesicles retained on the filters were dissolved in 10% SDS and transferred into a 96-well microplate. After the addition of DMSO as a stabilizer, fluorescence was measured using a plate reader at 427/535 nm (Victor X3 Enspire Perkin-Elmer, Waltham, MA, USA). When radiolabeled compounds were used as substrates, radioactivity retained on the filter was measured by liquid scintillation counting in Optiphase HiSafe liquid (Perkin Elmer MicroBeta2 liquid scintillation counter, Perkin Elmer, Waltham, MA, USA). ATP-dependent transport was calculated by subtracting the values obtained in the presence of AMP from those obtained in the presence of ATP.

ABCB1 = ABCB1 (Homo sapiens, UniProt P08183); test: ABCB1 vesicular transport (NMQ), HEK293 inverted membrane vesicles; conditions: for effect on ABCB1 NMQ vesicular transport: up to 200 μM
Chain of ABCB1 (P08183 whole entry): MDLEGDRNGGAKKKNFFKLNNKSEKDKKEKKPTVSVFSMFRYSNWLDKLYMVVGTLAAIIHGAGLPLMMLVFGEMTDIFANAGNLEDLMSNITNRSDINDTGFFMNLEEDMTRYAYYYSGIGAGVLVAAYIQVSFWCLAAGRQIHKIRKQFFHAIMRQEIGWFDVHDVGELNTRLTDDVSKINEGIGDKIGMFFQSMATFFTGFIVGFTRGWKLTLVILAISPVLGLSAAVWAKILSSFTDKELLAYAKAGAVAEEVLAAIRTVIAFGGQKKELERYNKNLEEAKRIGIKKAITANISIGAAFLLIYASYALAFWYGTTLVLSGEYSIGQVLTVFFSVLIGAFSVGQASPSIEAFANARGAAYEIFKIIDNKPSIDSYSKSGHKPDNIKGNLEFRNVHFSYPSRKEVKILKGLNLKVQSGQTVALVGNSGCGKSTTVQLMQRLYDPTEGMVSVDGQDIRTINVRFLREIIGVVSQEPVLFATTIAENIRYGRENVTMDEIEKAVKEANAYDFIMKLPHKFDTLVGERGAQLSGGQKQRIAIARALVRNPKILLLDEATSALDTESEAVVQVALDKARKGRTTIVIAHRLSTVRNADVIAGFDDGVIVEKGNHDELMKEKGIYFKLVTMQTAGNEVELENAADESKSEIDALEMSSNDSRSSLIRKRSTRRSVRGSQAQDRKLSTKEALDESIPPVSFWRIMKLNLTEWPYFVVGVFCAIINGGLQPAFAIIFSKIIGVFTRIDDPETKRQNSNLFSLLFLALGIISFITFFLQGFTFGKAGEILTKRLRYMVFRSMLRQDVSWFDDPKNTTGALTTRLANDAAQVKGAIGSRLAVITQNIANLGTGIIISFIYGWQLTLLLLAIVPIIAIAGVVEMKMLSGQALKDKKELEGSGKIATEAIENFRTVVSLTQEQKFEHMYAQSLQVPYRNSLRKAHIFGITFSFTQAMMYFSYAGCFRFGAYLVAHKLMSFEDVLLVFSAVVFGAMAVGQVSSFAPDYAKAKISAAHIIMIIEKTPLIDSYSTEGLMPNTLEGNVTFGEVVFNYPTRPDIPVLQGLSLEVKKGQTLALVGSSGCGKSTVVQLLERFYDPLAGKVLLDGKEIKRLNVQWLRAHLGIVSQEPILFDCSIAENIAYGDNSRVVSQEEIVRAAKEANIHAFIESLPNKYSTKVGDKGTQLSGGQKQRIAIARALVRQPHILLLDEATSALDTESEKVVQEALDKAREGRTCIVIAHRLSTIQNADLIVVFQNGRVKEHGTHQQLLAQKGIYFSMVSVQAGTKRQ

Row | Structure (SMILES) | maximum inhibition of OATP2B1 (OATP2B1; at 200 μM, pyranine) | IC50 (OATP2B1) | effect on ABCG2 lucifer yellow vesicular transport (ABCG2) | effect on ABCB1 NMQ vesicular transport (ABCB1) | inhibition at 10 min, 200 µM (OATP2B1; human, A431 cells overexpressing OATP2B1, pH 5.5, probe pyranine (20 μM), at 200 μM, pyranine, read-out: maximum inhibition of OATP2B1) | inhibition of OATP2B1 by Nirmatrelvir alone (OATP2B1; at 20 μM) | additional effect of Nirmatrelvir on ABCB1 inhibition by Ritonavir (ABCB1; NIR in combination with RIT)
1 | O=c1nc(NO)ccn1[C@@H]1O[C@H](CO)[C@@H](O)[C@H]1O [EIDD-1931] | 20–40% | > 200 µM | neither the function of ABCB1 nor that of ABCG2 was altered | neither the function of ABCB1 nor that of ABCG2 was altered | – | – | –
2 | CC(C)C(=O)OC[C@H]1O[C@@H](n2ccc(NO)nc2=O)[C@H](O)[C@@H]1O [EIDD-2801, Molnupiravir] | – | > 200 µM | neither the function of ABCB1 nor that of ABCG2 was altered | neither the function of ABCB1 nor that of ABCG2 was altered | 20 to 40% | – | –
3 | CC(C)(C)[C@H](NC(=O)C(F)(F)F)C(=O)N1C[C@H]2[C@@H]([C@H]1C(=O)N[C@H](C#N)C[C@@H]1CCNC1=O)C2(C)C [Nirmatrelvir] | – | – | not affected; also recorded: negligible effect | moderate inhibitory effect; also recorded: only a weak inhibitory effect | – | only a minor inhibitory effect | no additional effect
